# US12447153B2, “HER2 mutation inhibitors” (Array BioPharma Inc., priority 2021, dated 2025)
# Key:
# [1] = molecular target: ErbB2 WT (Homo sapiens (Human), UniProt P04626); experiment: ErbB Enzyme Assay (HTRF KinEASE-TK), Assay 2; type: biochemical; conditions: ErbB2 WT enzyme
# [2] = molecular target: EGFR (Homo sapiens (Human), UniProt P00533); experiment: ErbB Enzyme Assay (HTRF KinEASE-TK), Assay 3; type: biochemical; conditions: EGFR enzyme
# [3] = molecular target: ErbB2 with Exon 20 YVMA insertion (HER2-YVMA) (Homo sapiens (Human), UniProt P04626, INS775YVMA); experiment: Cellular Phosphorylation Assay, Assay 4 (constitutive ErbB2 phosphorylation, NIH 3T3 cells); type: cell-based; conditions: ErbB2 YVMA phosphorylation
# Chain of ErbB2 with Exon 20 YVMA insertion (HER2-YVMA) (P04626 other isoform, or with tags, fused parts or gaps ins YVMA behind 775): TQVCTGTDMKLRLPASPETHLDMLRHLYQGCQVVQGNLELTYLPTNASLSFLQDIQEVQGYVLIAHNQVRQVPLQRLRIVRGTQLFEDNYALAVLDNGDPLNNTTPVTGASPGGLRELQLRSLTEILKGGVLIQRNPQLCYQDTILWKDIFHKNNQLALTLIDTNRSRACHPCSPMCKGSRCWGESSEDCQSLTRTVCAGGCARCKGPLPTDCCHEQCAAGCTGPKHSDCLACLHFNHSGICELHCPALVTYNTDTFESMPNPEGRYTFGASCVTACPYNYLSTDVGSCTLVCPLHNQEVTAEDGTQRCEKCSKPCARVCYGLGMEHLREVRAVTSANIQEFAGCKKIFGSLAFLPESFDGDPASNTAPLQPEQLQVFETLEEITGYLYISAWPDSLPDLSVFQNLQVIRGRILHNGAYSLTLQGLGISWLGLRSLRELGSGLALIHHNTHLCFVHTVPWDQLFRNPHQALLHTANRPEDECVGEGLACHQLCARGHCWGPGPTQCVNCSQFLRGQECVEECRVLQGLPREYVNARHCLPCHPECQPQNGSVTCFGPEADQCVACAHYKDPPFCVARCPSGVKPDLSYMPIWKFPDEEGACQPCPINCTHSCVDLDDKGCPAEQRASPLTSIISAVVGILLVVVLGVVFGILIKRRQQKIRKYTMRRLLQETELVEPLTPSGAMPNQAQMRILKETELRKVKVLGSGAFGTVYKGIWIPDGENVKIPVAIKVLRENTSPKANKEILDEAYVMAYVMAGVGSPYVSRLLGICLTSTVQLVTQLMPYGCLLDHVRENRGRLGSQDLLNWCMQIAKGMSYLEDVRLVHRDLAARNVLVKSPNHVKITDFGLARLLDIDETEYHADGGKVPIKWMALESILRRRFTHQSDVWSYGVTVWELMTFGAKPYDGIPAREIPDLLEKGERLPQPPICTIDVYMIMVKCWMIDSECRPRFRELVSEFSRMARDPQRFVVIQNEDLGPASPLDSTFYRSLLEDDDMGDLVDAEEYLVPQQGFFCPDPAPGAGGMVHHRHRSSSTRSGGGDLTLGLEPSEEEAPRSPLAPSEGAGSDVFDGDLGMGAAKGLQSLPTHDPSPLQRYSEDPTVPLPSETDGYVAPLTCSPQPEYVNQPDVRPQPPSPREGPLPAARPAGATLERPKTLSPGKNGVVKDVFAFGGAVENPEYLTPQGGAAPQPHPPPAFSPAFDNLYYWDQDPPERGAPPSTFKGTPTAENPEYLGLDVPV
# [4] = molecular target: EGFR wild type (EGFR WT) (Homo sapiens (Human), UniProt P00533); experiment: Cellular Phosphorylation Assay, Assay 5 (EGF-stimulated EGFR phosphorylation, NIH 3T3 cells); type: cell-based; conditions: EGF-stimulated EGFR WT phosphorylation
# Chain of EGFR wild type (EGFR WT) (P00533 25-1210): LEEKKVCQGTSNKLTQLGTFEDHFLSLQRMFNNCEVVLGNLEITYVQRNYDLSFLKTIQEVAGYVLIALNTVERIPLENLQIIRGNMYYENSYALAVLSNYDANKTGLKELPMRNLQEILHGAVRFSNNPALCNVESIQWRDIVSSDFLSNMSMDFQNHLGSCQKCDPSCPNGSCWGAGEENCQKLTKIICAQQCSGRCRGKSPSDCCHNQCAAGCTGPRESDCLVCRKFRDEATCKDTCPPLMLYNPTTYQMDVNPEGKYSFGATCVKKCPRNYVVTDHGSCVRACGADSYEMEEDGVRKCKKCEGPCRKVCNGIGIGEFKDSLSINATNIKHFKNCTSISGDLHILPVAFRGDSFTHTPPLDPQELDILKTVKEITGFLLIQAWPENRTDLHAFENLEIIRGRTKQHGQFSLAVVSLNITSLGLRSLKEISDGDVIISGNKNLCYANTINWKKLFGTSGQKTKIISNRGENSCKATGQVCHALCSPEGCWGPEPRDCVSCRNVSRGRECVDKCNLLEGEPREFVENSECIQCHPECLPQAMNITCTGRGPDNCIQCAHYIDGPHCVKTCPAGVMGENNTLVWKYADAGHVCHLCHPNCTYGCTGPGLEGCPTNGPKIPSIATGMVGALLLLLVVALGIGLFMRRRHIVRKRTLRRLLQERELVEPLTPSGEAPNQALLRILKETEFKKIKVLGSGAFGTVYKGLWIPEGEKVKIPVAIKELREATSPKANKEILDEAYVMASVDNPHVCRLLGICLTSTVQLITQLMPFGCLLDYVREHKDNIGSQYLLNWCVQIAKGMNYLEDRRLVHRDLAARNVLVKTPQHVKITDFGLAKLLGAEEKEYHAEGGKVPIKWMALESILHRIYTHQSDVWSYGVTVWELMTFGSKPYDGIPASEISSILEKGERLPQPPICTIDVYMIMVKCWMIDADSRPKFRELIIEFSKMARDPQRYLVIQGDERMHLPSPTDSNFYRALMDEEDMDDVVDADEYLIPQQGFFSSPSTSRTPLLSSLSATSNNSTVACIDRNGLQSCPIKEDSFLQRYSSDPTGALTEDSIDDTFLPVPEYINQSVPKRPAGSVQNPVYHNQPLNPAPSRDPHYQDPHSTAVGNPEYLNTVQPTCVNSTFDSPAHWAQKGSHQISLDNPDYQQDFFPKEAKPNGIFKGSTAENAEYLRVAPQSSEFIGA
# Chain of EGFR (P00533 25-1210): as above
# Chain of ErbB2 WT (P04626 23-1255): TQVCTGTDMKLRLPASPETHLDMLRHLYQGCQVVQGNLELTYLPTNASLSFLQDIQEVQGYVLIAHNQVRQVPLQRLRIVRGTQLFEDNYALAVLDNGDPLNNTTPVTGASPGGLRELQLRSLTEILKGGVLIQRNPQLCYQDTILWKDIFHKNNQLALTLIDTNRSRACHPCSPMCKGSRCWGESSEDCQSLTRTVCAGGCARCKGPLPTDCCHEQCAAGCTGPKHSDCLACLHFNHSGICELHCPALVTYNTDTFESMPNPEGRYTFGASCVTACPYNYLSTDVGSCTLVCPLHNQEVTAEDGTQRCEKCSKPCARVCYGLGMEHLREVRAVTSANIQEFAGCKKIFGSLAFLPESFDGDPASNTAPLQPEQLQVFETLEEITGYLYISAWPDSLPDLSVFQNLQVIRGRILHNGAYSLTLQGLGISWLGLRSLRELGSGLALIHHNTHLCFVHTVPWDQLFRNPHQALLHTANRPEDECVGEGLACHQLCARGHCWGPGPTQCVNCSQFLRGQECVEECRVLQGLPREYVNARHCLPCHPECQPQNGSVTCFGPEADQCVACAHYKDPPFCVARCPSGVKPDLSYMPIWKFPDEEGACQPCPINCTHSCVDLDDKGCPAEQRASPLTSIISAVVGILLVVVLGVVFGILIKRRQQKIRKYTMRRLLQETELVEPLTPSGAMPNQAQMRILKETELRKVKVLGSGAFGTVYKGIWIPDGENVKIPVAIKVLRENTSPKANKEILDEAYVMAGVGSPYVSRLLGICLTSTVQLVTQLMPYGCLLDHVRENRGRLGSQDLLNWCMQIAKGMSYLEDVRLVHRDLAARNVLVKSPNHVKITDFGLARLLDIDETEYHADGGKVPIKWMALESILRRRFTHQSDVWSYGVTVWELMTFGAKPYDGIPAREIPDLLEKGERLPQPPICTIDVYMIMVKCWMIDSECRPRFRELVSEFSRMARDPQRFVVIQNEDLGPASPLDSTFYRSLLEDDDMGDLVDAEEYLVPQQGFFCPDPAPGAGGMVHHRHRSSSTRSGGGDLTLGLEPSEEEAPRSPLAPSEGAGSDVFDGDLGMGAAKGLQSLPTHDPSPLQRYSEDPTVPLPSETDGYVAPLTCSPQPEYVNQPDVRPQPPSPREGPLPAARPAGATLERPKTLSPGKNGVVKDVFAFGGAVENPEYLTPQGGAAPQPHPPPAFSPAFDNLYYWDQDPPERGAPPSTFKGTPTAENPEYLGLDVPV
Compound,IC50 [1],IC50 [2],IC50 [3],IC50 [4]
"C=CC(=O)N1CCN(c2ccc3ncnc(Nc4ccc(Oc5ccn6ncnc6c5)c(Cl)c4F)c3n2)CC1(C)C [Example 87, 1-(4-(4-((4-([1,2,4]triazolo[1,5-a]pyridin-7-yloxy)-3-chloro-2-fluorophenyl)amino)pyrido[3,2-d]pyrimidin-6-yl)-2,2-dimethylpiperazin-1-yl)prop-2-en-1-one]",7.5 nM,463 nM,8.8 nM,178 nM
"C=CC(=O)N1CCN(c2ccc3ncnc(Nc4ccc(Oc5ccn6ncnc6c5)c(C)c4F)c3n2)C[C@H]1C [Example 89, (R)-1-(4-(4-((4-([1,2,4]triazolo[1,5-a]pyridin-7-yloxy)-2-fluoro-3-methylphenyl)amino)pyrido[3,2-d]pyrimidin-6-yl)-2-methylpiperazin-1-yl)prop-2-en-1-one]",76.5 nM,3630 nM,10.9 nM,449 nM
"C=CC(=O)N1C[C@H]2C[C@@H]1CN2c1ccc2ncnc(Nc3ccc(Oc4ccn5ncnc5c4)c(Cl)c3F)c2n1 [Example 92, 1-((1R,4R)-5-(4-((4-([1,2,4]triazolo[1,5-a]pyridin-7-yloxy)-3-chloro-2-fluorophenyl)amino)pyrido[3,2-d]pyrimidin-6-yl)-2,5-diazabicyclo[2.2.1]heptan-2-yl)prop-2-en-1-one]",126 nM,2430 nM,15.4 nM,1880 nM
"C=CC(=O)N1C[C@@H]2C[C@H]1CN2c1ccc2ncnc(Nc3ccc(Oc4ccn5ncnc5c4)c(Cl)c3F)c2n1 [Example 93, 1-((1S,4S)-5-(4-((4-([1,2,4]triazolo[1,5-a]pyridin-7-yloxy)-3-chloro-2-fluorophenyl)amino)pyrido[3,2-d]pyrimidin-6-yl)-2,5-diazabicyclo[2.2.1]heptan-2-yl)prop-2-en-1-one]",12.6 nM,137 nM,3.7 nM,53.5 nM
"C=CC(=O)N1CCCN(c2ccc3ncnc(Nc4ccc(Oc5ccn6ncnc6c5)c(Cl)c4)c3n2)CC1 [Example 99, 1-(4-(4-((4-([1,2,4]triazolo[1,5-a]pyridin-7-yloxy)-3-chlorophenyl)amino)pyrido[3,2-d]pyrimidin-6-yl)-1,4-diazepan-1-yl)prop-2-en-1-one]",19 nM,5840 nM,35.2 nM,≥ 5000 nM
"C=CC(=O)N1C[C@@H]2C[C@H]1CN(c1ccc3ncnc(Nc4cc(C)c(Oc5ccc6c(c5)ncn6C)cc4F)c3n1)C2 [Example 102, 1-((1R,5S)-3-(4-((2-fluoro-5-methyl-4-((1-methyl-1H-benzo[d]imidazol-5-yl)oxy)phenyl)amino)pyrido[3,2-d]pyrimidin-6-yl)-3,6-diazabicyclo[3.2.1]octan-6-yl)prop-2-en-1-one]",461 nM,≥ 10000 nM,15.4 nM,≥ 5000 nM
"C=CC(=O)N1[C@H](C)CN(c2ccc3ncnc(Nc4ccc(Oc5ccc6c(c5)ncn6C)c(C)c4F)c3n2)C[C@@H]1C [Example 115, 1-((2S,6R)-4-(4-((2-fluoro-3-methyl-4-((1-methyl-1H-benzo[d]imidazol-5-yl)oxy)phenyl)amino)pyrido[3,2-d]pyrimidin-6-yl)-2,6-dimethylpiperazin-1-yl)prop-2-en-1-one]",55.4 nM,≥ 10000 nM,82.8 nM,≥ 5000 nM
"C=CC(=O)N1C2CCC1CC(c1ccc3ncnc(Nc4ccc(Oc5ccc6c(c5)ncn6C)c(C)c4)c3n1)C2 (stereo not drawn) [Example 122, 1-(3-(4-((3-methyl-4-((1-methyl-1H-benzo[d]imidazol-5-yl)oxy)phenyl)amino)pyrido[3,2-d]pyrimidin-6-yl)-8-azabicyclo[3.2.1]octan-8-yl)prop-2-en-1-one]",9.3 nM,3880 nM,13 nM,≥ 5000 nM
"C=CC(=O)N1CCN(c2nc3c(Nc4ccc(Oc5ccn6ncnc6c5)c(C)c4F)ncnc3cc2Cl)C[C@@H]1C [Example 149, (S)-1-(4-(4-((4-([1,2,4]triazolo[1,5-a]pyridin-7-yloxy)-2-fluoro-3-methylphenyl)amino)-7-chloropyrido[3,2-d]pyrimidin-6-yl)-2-methylpiperazin-1-yl)prop-2-en-1-one]",323 nM,6700 nM,192 nM,≥ 5000 nM
"C=CC(=O)N1CCCN(c2nc3c(Nc4ccc(Oc5ccn6ncnc6c5)c(C)c4F)ncnc3cc2OC)CC1 [Example 150, 1-(4-(4-((4-([1,2,4]triazolo[1,5-a]pyridin-7-yloxy)-2-fluoro-3-methylphenyl)amino)-7-methoxypyrido[3,2-d]pyrimidin-6-yl)-1,4-diazepan-1-yl)prop-2-en-1-one]",16.6 nM,1550 nM,47 nM,≥ 5000 nM

# Continued by falling IC50 [1], values first:
IC50 [1],IC50 [2],IC50 [3],IC50 [4],Compound
132 nM,9570 nM,66.1 nM,≥ 5000 nM,"C=CC(=O)N1CCCN(c2ccc3ncnc(Nc4ccc(Oc5ccn6ncnc6c5)c(C)c4F)c3n2)CC1 [Example 100, 1-(4-(4-((4-([1,2,4]triazolo[1,5-a]pyridin-7-yloxy)-2-fluoro-3-methylphenyl)amino)pyrido[3,2-d]pyrimidin-6-yl)-1,4-diazepan-1-yl)prop-2-en-1-one]"
81.3 nM,2950 nM,17.8 nM,1850 nM,"C=CC(=O)N1CCN(c2ccc3ncnc(Nc4ccc(Oc5ccn6ncnc6c5)c(C)c4F)c3n2)C[C@@H]1C [Example 88, (S)-1-(4-(4-((4-([1,2,4]triazolo[1,5-a]pyridin-7-yloxy)-2-fluoro-3-methylphenyl)amino)pyrido[3,2-d]pyrimidin-6-yl)-2-methylpiperazin-1-yl)prop-2-en-1-one]"
60.4 nM,≥ 10000 nM,9.4 nM,≥ 5000 nM,"C=CC(=O)N1C[C@H]2C[C@@H]1CN(c1ccc3ncnc(Nc4cc(C)c(Oc5ccc6c(c5)ncn6C)cc4F)c3n1)C2 [Example 119, 1-((1S,5R)-3-(4-((2-fluoro-5-methyl-4-((1-methyl-1H-benzo[d]imidazol-5-yl)oxy)phenyl)amino)pyrido[3,2-d]pyrimidin-6-yl)-3,6-diazabicyclo[3.2.1]octan-6-yl)prop-2-en-1-one]"
48.2 nM,7480 nM,40 nM,≥ 5000 nM,"C=CC(=O)N1CCC(c2ccc3ncnc(Nc4ccc(Oc5ccc6c(c5)ncn6C)c(C)c4)c3n2)C(C)C1 (stereo not drawn) [Example 125, 1-((3RS,4R*)3-methyl-4-(4-((3-methyl-4-((1-methyl-1H-benzo[d]imidazol-5-yl)oxy)phenyl)amino)pyrido[3,2-d]pyrimidin-6-yl)piperidin-1-yl)prop-2-en-1-one]"
41.6 nM,126 nM,28.1 nM,548 nM,"C=CC(=O)N1CCC(Oc2nc3c(Nc4ccc(Oc5ccc6cn(C)nc6c5)c(C)c4F)ncnc3cc2OC)CC1 [Example 151, 1-(4-((4-((2-fluoro-3-methyl-4-((2-methyl-2H-indazol-6-yl)oxy)phenyl)amino)-7-methoxypyrido[3,2-d]pyrimidin-6-yl)oxy)piperidin-1-yl)prop-2-en-1-one]"
38 nM,378 nM,5 nM,49.5 nM,"C=CC(=O)N1C[C@@H]2C[C@H]1CN2c1ccc2ncnc(Nc3ccc(Oc4ccn5ncnc5c4)c(C)c3F)c2n1 [Example 95, 1-((1S,4S)-5-(4-((4-([1,2,4]triazolo[1,5-a]pyridin-7-yloxy)-2-fluoro-3-methylphenyl)amino)pyrido[3,2-d]pyrimidin-6-yl)-2,5-diazabicyclo[2.2.1]heptan-2-yl)prop-2-en-1-one]"
13.4 nM,519 nM,5.9 nM,575 nM,"C=CC(=O)N1CCN(c2ccc3ncnc(Nc4ccc(Oc5ccn6ncnc6c5)c(Cl)c4F)c3n2)C[C@@H]1C [Example 90, (S)-1-(4-(4-((4-([1,2,4]triazolo[1,5-a]pyridin-7-yloxy)-3-chloro-2-fluorophenyl)amino)pyrido[3,2-d]pyrimidin-6-yl)-2-methylpiperazin-1-yl)prop-2-en-1-one]"
12.3 nM,1260 nM,12.2 nM,1770 nM,"C=CC(=O)N1CCCCC(c2ccc3ncnc(Nc4ccc(Oc5ccc6c(c5)ncn6C)c(C)c4)c3n2)C1 (stereo not drawn) [Example 126, 1-(3-(4-((3-methyl-4-((1-methyl-1H-benzo[d]imidazol-5-yl)oxy)phenyl)amino)pyrido[3,2-d]pyrimidin-6-yl)azepan-1-yl)prop-2-en-1-one]"
9.8 nM,358 nM,2.8 nM,56.8 nM,"C=CC(=O)N1CCN(c2ccc3ncnc(Nc4ccc(Oc5ccn6ncnc6c5)c(Cl)c4F)c3n2)C[C@H]1C [Example 91, (R)-1-(4-(4-((4-([1,2,4]triazolo[1,5-a]pyridin-7-yloxy)-3-chloro-2-fluorophenyl)amino)pyrido[3,2-d]pyrimidin-6-yl)-2-methylpiperazin-1-yl)prop-2-en-1-one]"
2.3 nM,30 nM,5.7 nM,45.4 nM,"C=CC(=O)N1CCN(c2ccc3ncnc(Nc4ccc(Oc5ccn6ncnc6c5)c(Cl)c4F)c3n2)C[C@@H]1C(F)(F)F [Example 86, (R)-1-(4-(4-((4-([1,2,4]triazolo[1,5-a]pyridin-7-yloxy)-3-chloro-2-fluorophenyl)amino)pyrido[3,2-d]pyrimidin-6-yl)-2-(trifluoromethyl)piperazin-1-yl)prop-2-en-1-one]"
0.6 nM,16.1 nM,4.4 nM,69 nM,"C=CC(=O)N1CCN(c2nc3c(Nc4ccc(Oc5ccn6ncnc6c5)c(Cl)c4F)ncnc3cc2OC)CC1 [Example 148, 1-(4-(4-((4-([1,2,4]triazolo[1,5-a]pyridin-7-yloxy)-3-chloro-2-fluorophenyl)amino)-7-methoxypyrido[3,2-d]pyrimidin-6-yl)piperazin-1-yl)prop-2-en-1-one]"
